Assay results published in patent US10179914B2, “CDC25A inhibitor for the treatment of drug resistant cancer or for the prevention of tumor relapse” (INSERM (INSTITUT NATIONAL DE LA SANTÉ ET DE LA RECHERCHE …, priority 2014, dated 2019).

Assays:
[1] = tested on: FLT3-wild type primary AML samples; experiment: Differentiation of FLT3 wild-type primary AML samples; type: cell-based, human; details: same conditions
Source text: Patient samples. Patient AML samples were obtained after informed consent in accordance with the Declaration of Helsinki and stored at the HIMIP collection. According to the French law, HIMIP collection has been declared to the Ministry of Higher Education and Research (DC 2008-307 collection 1) and obtained a transfer agreement (AC 2008-129) after approbation by ethical committees (Comité de Protection des Personnes Sud-Ouest et Outremer II and APHP ethical committee). Clinical and biological annotations of the samples have been declared to the CNIL (Comité National Informatique et Libertés i.e. Data processing and Liberties National Committee). Frozen cells were thawed in IMDM medium with 20% FBS and immediately processed for treatment. All patients were diagnosed at the Department of Hematology of Toulouse University Hospital.
Co-cultures. […]
Flow cytometry. Apoptotic cells were detected with Annexin V-FITC detection kit from BD Pharmingen (San Diego, Calif., USA) according to the manufacturer instructions. […] Data were collected on a LSRII or a LSRFortessa cytometer (BD Biosciences), and analyzed with FlowJo software. […]

[2] = with these regimens; cited from earlier work

## Cc1nc2c(s1)C(=O)C=C(NCCCN(C)CCCNC1=CC(=O)c3nc(-c4cc(F)ccc4F)oc3C1=O)C2=O [IRC-083864]
[1]
  differentiation of FLT3-wild type samples: no evidence of differentiation
[2]
  apparent toxicity: No sign of apparent toxicity
